Patent US20190038659A1, “METHODS OF TREATING AND PREVENTING AMYOTROPHIC LATERAL SCLEROSIS” (priority 2015, published 2019)
“Also recorded” adds a separate entry of the source. Where two headings read alike, the source gives them in different places.

What was measured:
HERV-K viral transcripts = assay: HERV-K activation in human neuronal cultures after neuronal injury (viral transcripts); assay type: cell-based; conditions: human neurons; 3 mM 3-nitropropionic acid, 100 μM N-methyl-D-aspartate or 100 μM hydrogen peroxide, 18 hours
[1] = test system: HERV-K reverse transcriptase; assay: HERV-K RT activity in a cell-free system (PERT assay); assay type: biochemical, human endogenous retrovirus-K (HERV-K); conditions: inhibitor added to extracted HERV-K RT just prior to PERT assay
VSV-G pseudotyped HERV-K = assay: cells; assay type: cell-based, human endogenous retrovirus-K (HERV-K); conditions: for IC90: Homo sapiens, HeLa, 144 h, read-out: IC90, HERV-K replication (gag RNA by qPCR)
HERV-K protease = assay: HERV-K viral production from pCD-HK/Rev transfected HeLa cells with protease inhibitors (PERT assay of supernatant); assay type: cell-based, human endogenous retrovirus-K (HERV-K); conditions: for IC90: Homo sapiens; for inhibition of HERV-K viral production (in words): inhibitors added 6 hr after transfection, PERT assay
[2] = 2-fold serial dilution 31.25 nM to 1 μM
[3] = 2-fold serial dilution 31.25 nM to 1 μM, PERT 48 hrs, read-out: IC90, HERV-K viral production
[4] = 10-fold serial dilution 0.001 μM-100 μM, PERT 48 hr post-treatment, read-out: IC90, HERV-K protease / viral production, extensive dose-response

`O=C(O)CC[N+](=O)[O-]` [3-nitropropionic acid] was tested, and the “activation of HERV-K (viral transcripts)” value (HERV-K viral transcripts) was “No activation of HERV-K”.

With `Nc1nc(NC2CC2)c2ncn([C@H]3C=C[C@@H](CO)C3)c2n1` [Abacavir] the “inhibition of HERV-K RT activity” value [1] was “significant and dose-dependent inhibition”, the “inhibition of HERV-K replication (in words)” value (VSV-G pseudotyped HERV-K) was “effectively block; also recorded: inhibited HERV-K replication in a dose-dependent manner; also recorded: effectively inhibited” and the IC90 (VSV-G pseudotyped HERV-K) was 175 nM.

In the case of `CC(C)CN(C[C@@H](O)[C@H](Cc1ccccc1)NC(=O)O[C@H]1CO[C@H]2OCC[C@H]21)S(=O)(=O)c1ccc(N)cc1` [Darunavir], the “rank among the HIV protease inhibitors tested” value (HERV-K protease; [2]) is reported as “highest efficacy; also recorded: two most potent drugs”, the IC90 (HERV-K protease; [3]) is reported as about 100 nM and the IC90 (HERV-K protease; [4]) is reported as 71 nM. The “inhibition of HERV-K viral production (in words)” value (HERV-K protease) was “inhibited HERV-K protease in a dose-dependent manner”.

In the case of `O=C1Nc2ccc(Cl)cc2[C@@](C#CC2CC2)(C(F)(F)F)O1` [Efirvarenz], the “inhibition of HERV-K RT activity” value [1] is reported as “significant inhibition”.

With `Cc1cc(C#N)cc(C)c1Oc1nc(Nc2ccc(C#N)cc2)nc(N)c1Br` [Etravirine] the “inhibition of HERV-K RT activity” value [1] was “significant inhibition”.

For `Cc1cccc(C)c1OCC(=O)N[C@@H](Cc1ccccc1)[C@@H](O)C[C@H](Cc1ccccc1)NC(=O)[C@H](C(C)C)N1CCCNC1=O` [Lopinavir], the “rank among the HIV protease inhibitors tested” value (HERV-K protease; [2]) was “highest efficacy; also recorded: two most potent drugs”, the IC90 (HERV-K protease; [3]) was about 100 nM and the IC90 (HERV-K protease; [4]) was 651 nM. For the same compound, the “inhibition of HERV-K viral production (in words)” value (HERV-K protease) was “inhibited HERV-K protease in a dose-dependent manner”.

With `CN[C@H](CC(=O)O)C(=O)O` [N-methyl-D-aspartate] the “activation of HERV-K (viral transcripts)” value (HERV-K viral transcripts) was “No activation of HERV-K”.

With `Cc1ccnc2c1NC(=O)c1cccnc1N2C1CC1` [Nevirapine] the “inhibition of HERV-K RT activity” value [1] was “significant inhibition”.

For `Cc1nnc(C(=O)NC(C)(C)c2nc(C(=O)NCc3ccc(F)cc3)c(O)c(=O)n2C)o1` [Raltegravir], the “inhibition of HERV-K replication (in words)” value (VSV-G pseudotyped HERV-K) was “effectively block; also recorded: inhibited the replication of HERV-K in a dose-dependent manner; also recorded: effectively inhibited” and the IC90 (VSV-G pseudotyped HERV-K) was 75 nM.

With `Cc1cn([C@H]2C=C[C@@H](CO)O2)c(=O)[nH]c1=O` [Stavudine] the “inhibition of HERV-K RT activity” value [1] was “significant and dose-dependent inhibition”.

`C[C@H](Cn1cnc2c(N)ncnc21)OCP(=O)(O)O` [Tenofovir] was tested, and the “inhibition of HERV-K RT activity” value [1] was “significant and dose-dependent inhibition”.

For `Cc1cn([C@H]2C[C@H](N=[N+]=[N-])[C@@H](CO)O2)c(=O)[nH]c1=O` [Zidovudine], the “inhibition of HERV-K RT activity” value [1] was “significant and dose-dependent inhibition”, the “inhibition of HERV-K replication (in words)” value (VSV-G pseudotyped HERV-K) was “effectively block; also recorded: inhibited HERV-K replication in a dose-dependent manner; also recorded: effectively inhibited” and the IC90 (VSV-G pseudotyped HERV-K) was 70 nM.

With `OO` [hydrogen peroxide] the “activation of HERV-K (viral transcripts)” value (HERV-K viral transcripts) was “No activation of HERV-K”.
